Values after ≈ are worked out from the molar mass of the structure shown. Read-outs that look alike come from different tables or passages of the source. Positions of bridges follow the written chain, without caps; N, C: chain ends. Non-standard residues stand in square brackets, D forms with d. Residues, ends and D or L forms follow the SMILES beside them. hArg = N=C(N)NCCCC[C@H](N)C(=O)O; Mpa = O=C(O)CCS
Tests used:
[1] = system: platelets; assay: Ex vivo collagen-induced platelet aggregation response; format: in vivo, mouse; details: FIG. 1 panels B and C
[2] = Tail bleeding time; format: in vivo, mouse; details: 0.18 mg/Kg, mice
Protocol: Male ICR mice weighing 20-30 g were used in all studies. Animals were allowed to access food and water ad libitum under controlled temperature (20±1° C.) and humidity (55%±5%). The animal experimental protocols were approved by the Laboratory Animal Use Committee of College of Medicine, National Taiwan University.
Male ICR mice were intravenously injected through a lateral tail vein of the mouse with agents. A sharp cut of 2 mm segment from the distal tail was made 5 min after injection. The amputated tail was immediately placed into a tube filled with isotonic saline at 37° C. Bleeding time was recorded for a maximum of 10 min and the end point was the arrest of bleeding.

[3] = system: platelets
Protocol: Disintegrin and its variants of Example 1 were subject to test for their abilities in suppressing platelet aggregation mediated by αIIbβ3. Briefly, venous blood samples from healthy donors were collected and platelet-rich plasma was prepared therefrom. The platelet-rich plasma was then incubated with the stimulant (e.g., collagen or AP2) that triggered plug formation, then with the disintegrin and/or its variants of Example 1.

[4] = system: platelets; assay: ADP-induced platelet aggregation in platelet-rich plasma; format: cell-based, human
Protocol: (§1) Blood was collected from healthy volunteers who had not taken any medication for two weeks prior to the study. Informed consents were obtained from each and every participants, and the study was approved by the institutional review board of National Taiwan University Hospital. Preparation of human PS was performed in accordance with procedures described previously (Huang et al., Experimental haemtology. 2008 36(12), 1704-1713).
(§2) Disintegrin and its variants of Example 1 were subject to test for their abilities in suppressing platelet aggregation mediated by αIIbβ3. Briefly, venous blood samples from healthy donors were collected and platelet-rich plasma was prepared therefrom. The platelet-rich plasma was then incubated with the stimulant (e.g., collagen or […]) that triggered plug formation, then with the disintegrin and/or its variants of Example 1.

[5] = target: T1, integrin αIIbβ3 (Homo sapiens, UniProt P05106+P08514); assay: Cell adhesion assay: CHO-αIIbβ3 cells to fibrinogen; format: cell-based; details: Table 3
T1 construct: host or cells: CHO (Chinese hamster ovary) cells
Protocol: (§3) A cell adhesion assay was used to determine the inhibitory activity of Rho, TMV, and their variants and was conducted according to previously described protocols. 96-well microtiter plates (Costar; Corning) were coated with 100 μL PBS buffer containing 200 μg/mL fibrinogen or 50 μg/mL fibronectin, and incubated overnight at 4° C. Non-specific protein binding sites were blocked by incubating each well with 200 μL of heat-denatured 1% bovine serum albumin (BSA) (Calbiochem) at room temperature for 1.5 h. The heat-denatured BSA was discarded and each well was washed twice with 200 μL PBS.
(§4) Chinese hamster ovary (CHO) cells that expressed integrins αvβ3 (CHO-αvβ3) and αIIbβ3 (CHO-αIIbβ3) were kindly provided by Dr. Y. Takada (Scripps Research Institute) and maintained in Dulbecco's modified Eagle's medium (18, 27). Human erythroleukemia K562 cell was purchased from ATCC and cultured in Roswell Park Memorial Institute (RPMI)—1640 medium containing 10% fetal bovine serum (FBS). Harvested K562 cells were resuspended in RPMI-1640 medium containing 5% FBS. […]
(§5) The adhesions of CHO-αIIbβ3 cells to fibrinogen, CHO-αvβ3 cells to fibrinogen, and K562 cells to fibronectin were used to determine the inhibitory activities of tested protein to integrins αIIbβ3, αvβ3, and α5β1. […] The resulting absorbance was read at 600 nm and the readings were correlated with the number of adhering cells. […]

[6] = system: integrin αvβ3; assay: Cell adhesion assay: CHO-αvβ3 cells to fibrinogen; format: cell-based; details: CHO-αvβ3 cells to immobilized fibrinogen
Protocol: as §3, §4, §5

[7] = system: platelets; assay: Platelet aggregation (inducer not stated); format: cell-based, human; details: Table 4; inducer not given
Protocol: as §1, §2

T1 sequence (P08514 32-887 limits assumed): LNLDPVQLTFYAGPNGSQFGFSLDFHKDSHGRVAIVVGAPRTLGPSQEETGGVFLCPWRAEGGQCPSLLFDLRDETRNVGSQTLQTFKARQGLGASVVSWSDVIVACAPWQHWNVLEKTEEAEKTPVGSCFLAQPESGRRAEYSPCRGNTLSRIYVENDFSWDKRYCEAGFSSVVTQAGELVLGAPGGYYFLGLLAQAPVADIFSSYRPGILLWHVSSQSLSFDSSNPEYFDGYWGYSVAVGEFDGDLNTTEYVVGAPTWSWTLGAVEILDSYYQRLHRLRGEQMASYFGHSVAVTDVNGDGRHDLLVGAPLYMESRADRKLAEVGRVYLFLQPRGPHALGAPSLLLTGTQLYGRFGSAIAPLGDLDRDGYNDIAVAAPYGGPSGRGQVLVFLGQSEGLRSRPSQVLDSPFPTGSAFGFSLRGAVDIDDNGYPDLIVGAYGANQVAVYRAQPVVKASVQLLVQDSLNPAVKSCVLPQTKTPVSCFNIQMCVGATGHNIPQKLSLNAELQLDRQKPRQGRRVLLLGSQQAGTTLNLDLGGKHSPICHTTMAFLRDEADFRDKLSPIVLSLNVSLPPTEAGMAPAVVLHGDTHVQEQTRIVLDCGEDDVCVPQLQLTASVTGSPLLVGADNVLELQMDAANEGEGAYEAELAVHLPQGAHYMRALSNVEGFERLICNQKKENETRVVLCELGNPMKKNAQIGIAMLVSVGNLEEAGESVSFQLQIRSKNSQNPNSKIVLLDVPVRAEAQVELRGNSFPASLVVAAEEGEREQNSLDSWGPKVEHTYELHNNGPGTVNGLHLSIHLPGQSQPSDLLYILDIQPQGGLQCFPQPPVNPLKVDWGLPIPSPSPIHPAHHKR
T1 sequence (P08514 891-1039 partner limits assumed): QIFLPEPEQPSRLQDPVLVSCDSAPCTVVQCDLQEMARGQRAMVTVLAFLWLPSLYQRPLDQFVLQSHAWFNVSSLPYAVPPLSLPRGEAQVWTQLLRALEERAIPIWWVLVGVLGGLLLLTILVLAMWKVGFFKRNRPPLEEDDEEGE
T1 sequence (P05106 27-788): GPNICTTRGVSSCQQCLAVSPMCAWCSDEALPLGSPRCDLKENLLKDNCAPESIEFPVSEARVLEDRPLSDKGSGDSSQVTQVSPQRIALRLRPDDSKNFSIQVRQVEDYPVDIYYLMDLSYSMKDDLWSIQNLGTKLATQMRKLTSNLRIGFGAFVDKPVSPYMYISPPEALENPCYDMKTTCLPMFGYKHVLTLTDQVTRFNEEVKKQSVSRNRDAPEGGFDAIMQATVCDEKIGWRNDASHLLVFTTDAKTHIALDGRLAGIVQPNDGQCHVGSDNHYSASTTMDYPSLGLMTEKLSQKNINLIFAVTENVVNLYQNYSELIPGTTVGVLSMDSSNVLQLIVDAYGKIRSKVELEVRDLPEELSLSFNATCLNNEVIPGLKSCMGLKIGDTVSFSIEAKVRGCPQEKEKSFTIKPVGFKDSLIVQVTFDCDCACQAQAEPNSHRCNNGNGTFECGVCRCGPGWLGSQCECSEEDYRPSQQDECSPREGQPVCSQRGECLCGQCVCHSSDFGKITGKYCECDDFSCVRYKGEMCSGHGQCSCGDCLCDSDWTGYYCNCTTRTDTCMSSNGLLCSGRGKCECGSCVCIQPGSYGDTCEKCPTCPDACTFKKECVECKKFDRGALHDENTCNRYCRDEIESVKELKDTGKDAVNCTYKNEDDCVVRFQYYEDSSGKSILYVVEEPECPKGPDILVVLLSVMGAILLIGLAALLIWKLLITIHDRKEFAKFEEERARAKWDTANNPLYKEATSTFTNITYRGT

Molecule	Collagen-induced platelet aggregation response [1]	Tail bleeding time [2]	IC50 on collagen-induced platelet aggregation ([3]; in vitro, FIG. 1 panel A)	IC50 [4]	IC50 [5]	IC50 [6]	IC50 [7]	IC50 ([3]; read-out: Platelet aggregation IC50 (nM), Collagen, collagen-induced)
N=C(N)NCCCC[C@@H]1NC(=O)CCSSC[C@@H](C(N)=O)NC(=O)[C@@H]2CCCN2C(=O)[C@H](Cc2c[nH]c3ccccc23)NC(=O)[C@H](CC(=O)O)NC(=O)CNC1=O [eptifibatide] ([Mpa][hArg]GDWPC-NH2; disulfide 1-7)	significantly suppressed	significantly prolong	0.75 µg/mL (≈ 0.901 µM)	–	–	–	–	–
Rhodostomin	–	–	–	81.5 nM	59.5 nM	13 ± 5.7 nM	83.2 ± 10.4 nM	66.8 nM
